Key:
[1] = tested on: MCF7-MDR1 cells (mammary adenocarcinoma; resistance to doxorubicin); experiment: Study of the cell cycle by flow cytometry, MCF7-MDR1; type: cell-based; settings: significant after 24 hours at 10^−7 M
Method: (§1) The biological activity of iodomethylene-dimethyl-dihydropyranone (I), as obtained according to Example 1, was studied in vitro on five different cell lines: • KB (epidermoid carcinoma of the nasopharynx) • HCT-116 (colorectal carcinoma) • K562 (myeloid leukemia) • K562-MDR1 (myeloid leukemia; resistance to doxorubicin) • MCF7-MDR1 (mammary adenocarcinoma; resistance to doxorubicin)
(§2) The cells selected for this study were incubated at 37° C. in the presence of iodomethylene-dimethyl-dihydropyranone (I) added to the culture medium at various concentrations. All the experiments carried out made it possible to determine the degree of toxicity of the test compound, its effect on the course of the cell cycle and its capacity to induce cell death by apoptosis.
(§3) This effect is significant after 24 hours of exposure of the cells to iodomethylene-dimethyl-dihydropyranone (I) used at the concentration 10^−7 M (cf. FIG. 4: effect of (I) on the cell cycle of the leukemia cells K562).

[2] = Maximum tolerated dose for a single intravenous injection; settings: Swiss Nu/nu (nude), mouse, in vivo, Nude mice, survival and weight monitored up to day 21
Method: The iodomethylene-dimethyl-dihydropyranone (I), as obtained according to Example 1, was injected by the intravenous route (iv) to 4-5 week old Nude mice (Swiss Nu/nu) at the following doses: 50 mg/kg, 66.6 mg/kg, 100 mg/kg, 150 mg/kg and 200 mg/kg.

[3] = tested on: K562-MDR1 cells (myeloid leukemia; resistance to doxorubicin); experiment: Study of the cell cycle by flow cytometry, K562-MDR1; type: cell-based; settings: significant after 24 hours at 10^−7 M
Method: as §1, §2, §3

[4] = tested on: K562-MDR1 cells (chemoresistant); experiment: Study of apoptosis, flow cytometry with annexin V / propidium iodide double labeling; type: cell-based; settings: 24 hours, 10^−6 M and 10^−7 M
[5] = tested on: HCT-116 cells (colorectal carcinoma); experiment: Study of cytotoxicity on HCT-116 cells; type: cell-based; settings: Homo sapiens, 96 hours of incubation, 37° C., read-out: concentration which induces the death of 50% of the cells (IC50)
Method: as §1, §2
(§4) The cytotoxicity of iodomethylene-dimethyl-dihydropyranone (I) was evaluated on KB and HCT-116 cells.

[6] = tested on: KB cells (epidermoid carcinoma of the nasopharynx); experiment: Study of cytotoxicity on KB cells; type: cell-based; settings: Homo sapiens, 96 hours of incubation, 37° C., read-out: concentration which induces the death of 50% of the cells (IC50)
Method: as §1, §2, §4

[7] = tested on: HCT116 cells (colorectal carcinoma); experiment: Study of the cell cycle by flow cytometry, HCT116; type: cell-based, human; settings: significant after 24 hours at 10^−7 M
Method: as §1, §2, §3

[8] = tested on: K562 cells (myeloid leukemia); experiment: Study of the cell cycle by flow cytometry, K562; type: cell-based; settings: significant after 24 hours at 10^−7 M
Method: as §1, §2, §3

[9] = tested on: HCT 116 tumor transplanted under the skin; experiment: Antitumor activity in Nude mice carrying a transplanted HCT 116 tumor; type: in vivo
Method: This antitumor activity of the compounds of the invention was studied on transplanted tumors (such as HCT-116) in Nude mice (nu/nu mice). Nude mice are immunodeficient mice having no thymus.
The xenotransplantation of human tumor cells in Nude mice is a model commonly used for the evaluation of the antitumor activity of various molecules.
The iodomethylene-dimethyl-dihydropyranone (I) was injected 4 times at 3 day intervals (D0, D3, D6 and D9). Two groups of control animals were formed. The first group received no injection (control), whereas the animals of the second group received injections of the solution which served to solubilize the iodomethylene-dimethyl-dihydropyranone (I) (vehicle).
The volume of the tumors (mm^3) was measured with a caliper twice per week.

in vivo = settings: Nude, mouse, iv
Method: Having determined the maximum tolerated dose for a single injection, the Nude mice were treated by the intravenous (iv) route with iodomethylene-dimethyl-dihydropyranone (I) injected at three different doses: 50, 70 and 90 mg/kg/injection. Each dose was administered 4 times at 3 day intervals (D0, D3, D6 and D9). The survival of the animals, their weight and clinical signs noted up to day 21 made it possible to establish the value of the maximum tolerated dose for four injections which is at less than 90 mg/kg. The 40, 60 and 80 mg/kg doses were therefore chosen for the evaluation of antitumor activity.

[10] = tested on: K562 cells (myeloid leukemia); experiment: Morphology of treated K562 cells; type: cell-based; settings: 10^−7 M, 24 hours
Method: as §1, §2
It should also be emphasized that from 24 hours onwards after the treatment with iodomethylene-dimethyl-dihydropyranone (I) at the dose of 10^−7 M, a change is observed in the morphology of the treated cells.

CC1(C)OC(=O)C=C/C1=C\I [E-5-iodomethylene-6,6-dimethyl-5,6-dihydropyran-2-one]
effect on the cell cycle [1]: blocks cell division in all the lines at the G2/M phase
MTD at 21 day [2]: 100 mg/kg
effect on the cell cycle [3]: blocks cell division in all the lines at the G2/M phase
induction of apoptosis (positive annexin V/negative PI cells) [4]: high induction of apoptosis
IC50 [5]: ~300 nM
IC50 [6]: ~450 nM
effect on the cell cycle [7]: blocks cell division in all the lines at the G2/M phase
effect on the cell cycle [8]: blocks cell division in all the lines at the G2/M phase
tumor progression (tumor volume growth curves) ([9]; 80 mg/kg/injection iv, D0, D3, D6, D9, from the 2nd injection): significantly inhibits the tumor progression
percentage T/C (median tumor volume treated/control ×100) ([9]; 21 days after the start of the treatments, iv, 4 injections, dose not stated): 53.5%
MTD at 21 day (in vivo): < 90 mg/kg
change in the morphology of the treated cells [10]: the cells lose their round forms and become fusiform
